# In patent US6355799B1, “Substituted benzene compounds, process for their preparation, and herbicidal and defoliant compositions containing them” (ISK Americas Incorporated, priority 1997, dated 2002):
# Legend:
# Format in all cases: in vivo
# [1] = test system: field corn (Zea mays L., var. Dekalb 535, CORN); assay: Pre-emerge test, crop safety; conditions: crop damage rating 0-100, 14 days after application
# Procedure, shortened: (§1)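 Plants grown in 10 cm pots of sandy loam mix received acetone-dissolved compounds through a moving flat-fan nozzle. Doses ranged from 15 to 1000 g ai/ha. Pre-emerge pots were seeded one day earlier, post-emerge pots 8–21 days earlier. Fourteen days on, each pot was graded 0–100 for damage.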
# [2] = test system: upland rice (Oryza sp., var. Tebonnet, RICE); assay: Pre-emerge test, crop safety; conditions: crop damage rating 0-100, 14 days after application
# Procedure, shortened: as §1
# [3] = test system: field corn (Zea mays L., var. Dekalb 535, CORN); assay: Post-emerge test, crop safety; conditions: post-emerge, 14 days after application, rating scale 0-100
# Procedure, shortened: (§2)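 Herbicidal damage is scored 0 (none) to 100 (complete plant death) two weeks after a simulated field spray. Rates span 15–1000 g ai/ha, delivered in acetone at 187 l/ha. For post-emergence treatments, plants have 2–3 leaves and the spray carries 0.25% v/v non-ionic surfactant.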
# [4] = test system: upland rice (Oryza sp., var. Tebonnet, RICE); assay: Post-emerge test, crop safety; conditions: post-emerge, 14 days after application, rating scale 0-100
# Procedure, shortened: as §2
# [5] = test system: redroot pigweed (Amaranthus retroflexus, AMARE); assay: Pre-emerge test, greenhouse herbicide activity screening; conditions: phytotoxicity rating 0-100, 14 days after application
# Procedure, shortened: (§3)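 Rating: 0–100 visual injury, 14 DAA. Application: acetone, 187 l/ha, 15–1000 g ai/ha, flat-fan track sprayer with nozzle 40–45 cm above soil or canopy. Post-emerge runs used 0.25% v/v surfactant on 2–3 leaf plants.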
# [6] = test system: barnyardgrass (Echinochloa crus-galli, ECHCG); assay: Post-emerge test, greenhouse herbicide activity screening; conditions: post-emerge, 14 days after application, rating scale 0-100
# Procedure, shortened: as §3
# [7] = test system: lambsquarters (Chenopodium album, CHEAL); assay: as above; conditions: post-emerge, 14 days after application, rating scale 0-100
# Procedure, shortened: as §3
# [8] = test system: large crabgrass (Digitaria sanguinalis, DIGSA); assay: as above; conditions: post-emerge, 14 days after application, rating scale 0-100
# Procedure, shortened: as §3
# [9] = test system: green foxtail (Setaria viridis, SETVI); assay: as above; conditions: post-emerge, 14 days after application, rating scale 0-100
# Procedure, shortened: as §3
# [10] = test system: common ragweed (Ambrosia artemisizfolia L., AMBEL); assay: as above; conditions: post-emerge, 14 days after application, rating scale 0-100
# Procedure, shortened: as §3
# [11] = test system: sicklepod (Cassia obtusifolia, CASOB); assay: as above; conditions: post-emerge, 14 days after application, rating scale 0-100
# Procedure, shortened: as §3
# [12] = test system: johnsongrass (Sorghum halepense, SORHA); assay: as above; conditions: post-emerge, 14 days after application, rating scale 0-100
# Procedure, shortened: as §3
# [13] = test system: ivyleaf morningglory (Ipomoea hederacea, IPOHE); assay: as above; conditions: post-emerge, 14 days after application, rating scale 0-100
# Procedure, shortened: as §3
# [14] = test system: redroot pigweed (Amaranthus retroflexus, AMARE); assay: as above; conditions: post-emerge, 14 days after application
# Procedure, shortened: as §3
# [15] = test system: velvetleaf (Abutilon theophrasti, ABUTH); assay: as above; conditions: post-emerge, 14 days after application, rating scale 0-100
# Procedure, shortened: as §3
# [16] = test system: barnyardgrass (Echinochloa crus-galli, ECHCG); assay: Pre-emerge test, greenhouse herbicide activity screening; conditions: phytotoxicity rating 0-100, 14 days after application
# Procedure, shortened: as §2
# [17] = test system: lambsquarters (Chenopodium album, CHEAL); assay: as above; conditions: phytotoxicity rating 0-100, 14 days after application
# Procedure, shortened: as §2
# [18] = test system: large crabgrass (Digitaria sanguinalis, DIGSA); assay: as above; conditions: phytotoxicity rating 0-100, 14 days after application
# Procedure, shortened: as §2
# [19] = test system: green foxtail (Setaria viridis, SETVI); assay: as above; conditions: phytotoxicity rating 0-100, 14 days after application
# Procedure, shortened: as §2
# [20] = test system: common ragweed (Ambrosia artemisizfolia L., AMBEL); assay: as above; conditions: phytotoxicity rating 0-100, 14 days after application
# Procedure, shortened: as §2
# [21] = test system: sicklepod (Cassia obtusifolia, CASOB); assay: as above; conditions: phytotoxicity rating 0-100, 14 days after application
# Procedure, shortened: as §2
# [22] = test system: johnsongrass (Sorghum halepense, SORHA); assay: as above; conditions: phytotoxicity rating 0-100, 14 days after application
# Procedure, shortened: as §2
# [23] = test system: ivyleaf morningglory (Ipomoea hederacea, IPOHE); assay: as above; conditions: phytotoxicity rating 0-100, 14 days after application
# Procedure, shortened: as §2
# [24] = test system: velvetleaf (Abutilon theophrasti, ABUTH); assay: as above; conditions: phytotoxicity rating 0-100, 14 days after application
# Procedure, shortened: as §2
# [25] = 63 g ai/ha, rating scale 0-100 (0 no damage, 100 complete death)
# [26] = 250 g ai/ha, rating scale 0-100
smiles,measurement,setting,value
Cn1c(C(F)(F)F)cc(=O)n(-c2ccc(C(N)=S)cc2NC(=O)c2ccc3ccccc3c2)c1=O [2-205],Pre-emerge Herbicidal Activity CORN,[1]; 63 g ai/ha,0
same,Pre-emerge Herbicidal Activity CORN,[1]; 250 g ai/ha,50
same,Pre-emerge Herbicidal Activity RICE,[2]; 63 g ai/ha,20
same,Pre-emerge Herbicidal Activity RICE,[2]; 250 g ai/ha,70
same,phytotoxicity rating CORN (crop damage),[3]; 63 g ai/ha,10
same,phytotoxicity rating CORN (crop damage),[3]; 250 g ai/ha,20
same,phytotoxicity rating RICE (crop damage),[4]; 63 g ai/ha,30
same,phytotoxicity rating RICE (crop damage),[4]; 250 g ai/ha,30
same,Pre-emerge Herbicidal Activity AMARE,[5]; 63 g ai/ha,100
same,Pre-emerge Herbicidal Activity AMARE,[5]; 250 g ai/ha,100
same,phytotoxicity rating ECHCG,[6]; 63 g ai/ha,0
same,phytotoxicity rating ECHCG,[6]; 250 g ai/ha,0
same,phytotoxicity rating CHEAL,[7]; 63 g ai/ha,70
same,phytotoxicity rating CHEAL,[7]; 250 g ai/ha,70
same,phytotoxicity rating DIGSA,[8]; 63 g ai/ha,10
same,phytotoxicity rating DIGSA,[8]; 250 g ai/ha,10
same,phytotoxicity rating SETVI,[9]; 63 g ai/ha,10
same,phytotoxicity rating SETVI,[9]; 250 g ai/ha,10
same,phytotoxicity rating AMBEL,[10]; 63 g ai/ha,70
same,phytotoxicity rating AMBEL,[10]; 250 g ai/ha,100
same,phytotoxicity rating CASOB,[11]; 63 g ai/ha,90
same,phytotoxicity rating CASOB,[11]; 250 g ai/ha,100
same,phytotoxicity rating SORHA,[12]; 63 g ai/ha,0
same,phytotoxicity rating SORHA,[12]; 250 g ai/ha,0
same,phytotoxicity rating IPOHE,[13]; 63 g ai/ha,100
same,phytotoxicity rating IPOHE,[13]; 250 g ai/ha,70
same,phytotoxicity rating AMARE,[14]; [25],90
same,phytotoxicity rating AMARE,[14]; [26],40
same,phytotoxicity rating ABUTH,[15]; 63 g ai/ha,100
same,phytotoxicity rating ABUTH,[15]; 250 g ai/ha,100
same,Pre-emerge Herbicidal Activity ECHCG,[16]; 63 g ai/ha,80
same,Pre-emerge Herbicidal Activity ECHCG,[16]; 250 g ai/ha,99
same,Pre-emerge Herbicidal Activity CHEAL,[17]; 63 g ai/ha,100
same,Pre-emerge Herbicidal Activity CHEAL,[17]; 250 g ai/ha,100
same,Pre-emerge Herbicidal Activity DIGSA,[18]; 63 g ai/ha,70
same,Pre-emerge Herbicidal Activity DIGSA,[18]; 250 g ai/ha,99
same,Pre-emerge Herbicidal Activity SETVI,[19]; 63 g ai/ha,70
same,Pre-emerge Herbicidal Activity SETVI,[19]; 250 g ai/ha,100
same,Pre-emerge Herbicidal Activity AMBEL,[20]; 63 g ai/ha,80
same,Pre-emerge Herbicidal Activity AMBEL,[20]; 250 g ai/ha,90
same,Pre-emerge Herbicidal Activity CASOB,[21]; 63 g ai/ha,0
same,Pre-emerge Herbicidal Activity CASOB,[21]; 250 g ai/ha,40
same,Pre-emerge Herbicidal Activity SORHA,[22]; 63 g ai/ha,40
same,Pre-emerge Herbicidal Activity SORHA,[22]; 250 g ai/ha,85
same,Pre-emerge Herbicidal Activity IPOHE,[23]; 63 g ai/ha,0
same,Pre-emerge Herbicidal Activity IPOHE,[23]; 250 g ai/ha,95
same,Pre-emerge Herbicidal Activity ABUTH,[24]; 63 g ai/ha,100
same,Pre-emerge Herbicidal Activity ABUTH,[24]; 250 g ai/ha,100
COC(=O)N(C(=O)OC)c1c(OC)c(Cl)cc(F)c1-n1c(=O)cc(C(F)(F)F)n(C)c1=O [4-2],Pre-emerge Herbicidal Activity CORN,[1]; 63 g ai/ha,0
same,Pre-emerge Herbicidal Activity CORN,[1]; 250 g ai/ha,5
same,Pre-emerge Herbicidal Activity RICE,[2]; 63 g ai/ha,10
same,Pre-emerge Herbicidal Activity RICE,[2]; 250 g ai/ha,20
same,phytotoxicity rating CORN (crop damage),[3]; 63 g ai/ha,0
same,phytotoxicity rating CORN (crop damage),[3]; 250 g ai/ha,10
same,phytotoxicity rating RICE (crop damage),[4]; 63 g ai/ha,0
same,phytotoxicity rating RICE (crop damage),[4]; 250 g ai/ha,30
same,Pre-emerge Herbicidal Activity AMARE,[5]; 63 g ai/ha,100
same,Pre-emerge Herbicidal Activity AMARE,[5]; 250 g ai/ha,100
same,phytotoxicity rating ECHCG,[6]; 63 g ai/ha,0
same,phytotoxicity rating ECHCG,[6]; 250 g ai/ha,0
same,phytotoxicity rating CHEAL,[7]; 63 g ai/ha,40
same,phytotoxicity rating CHEAL,[7]; 250 g ai/ha,95
same,phytotoxicity rating DIGSA,[8]; 63 g ai/ha,0
same,phytotoxicity rating DIGSA,[8]; 250 g ai/ha,0
same,phytotoxicity rating SETVI,[9]; 63 g ai/ha,0
same,phytotoxicity rating SETVI,[9]; 250 g ai/ha,20
same,phytotoxicity rating AMBEL,[10]; 63 g ai/ha,0
same,phytotoxicity rating AMBEL,[10]; 250 g ai/ha,30
same,phytotoxicity rating CASOB,[11]; 63 g ai/ha,0
same,phytotoxicity rating CASOB,[11]; 250 g ai/ha,40
same,phytotoxicity rating SORHA,[12]; 63 g ai/ha,0
same,phytotoxicity rating SORHA,[12]; 250 g ai/ha,0
same,phytotoxicity rating IPOHE,[13]; 63 g ai/ha,70
same,phytotoxicity rating IPOHE,[13]; 250 g ai/ha,100
same,phytotoxicity rating AMARE,[14]; [25],50
same,phytotoxicity rating AMARE,[14]; [26],85
same,phytotoxicity rating ABUTH,[15]; 63 g ai/ha,70
same,phytotoxicity rating ABUTH,[15]; 250 g ai/ha,100
same,Pre-emerge Herbicidal Activity ECHCG,[16]; 63 g ai/ha,0
same,Pre-emerge Herbicidal Activity ECHCG,[16]; 250 g ai/ha,80
same,Pre-emerge Herbicidal Activity CHEAL,[17]; 63 g ai/ha,100
same,Pre-emerge Herbicidal Activity CHEAL,[17]; 250 g ai/ha,100
same,Pre-emerge Herbicidal Activity DIGSA,[18]; 63 g ai/ha,40
same,Pre-emerge Herbicidal Activity DIGSA,[18]; 250 g ai/ha,90
same,Pre-emerge Herbicidal Activity SETVI,[19]; 63 g ai/ha,70
same,Pre-emerge Herbicidal Activity SETVI,[19]; 250 g ai/ha,100
same,Pre-emerge Herbicidal Activity AMBEL,[20]; 63 g ai/ha,30
same,Pre-emerge Herbicidal Activity AMBEL,[20]; 250 g ai/ha,100
same,Pre-emerge Herbicidal Activity CASOB,[21]; 63 g ai/ha,0
same,Pre-emerge Herbicidal Activity CASOB,[21]; 250 g ai/ha,80
same,Pre-emerge Herbicidal Activity SORHA,[22]; 63 g ai/ha,0
same,Pre-emerge Herbicidal Activity SORHA,[22]; 250 g ai/ha,70
same,Pre-emerge Herbicidal Activity IPOHE,[23]; 63 g ai/ha,0
same,Pre-emerge Herbicidal Activity IPOHE,[23]; 250 g ai/ha,100
same,Pre-emerge Herbicidal Activity ABUTH,[24]; 63 g ai/ha,100
same,Pre-emerge Herbicidal Activity ABUTH,[24]; 250 g ai/ha,100
